Data published in the supplement of paper PMC10627819.

Tests used:
[1] = system: B. subtilis 168; assay: fitness (endpoint OD595 vs no drug) (fraction); higher = more growth
Procedure, shortened: (§1)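 Fitness was defined as the optical density at the transition into stationary phase relative to the robust mean of no-drug control wells. Values were capped at 1. Cultures were started at OD595 0.01 in 384-well plates (30 µl, or 55 µl for S. pneumoniae) in TSB, LB Lennox or CY at 37 °C. OD595 was recorded every 30 min over 14 h, with the first reading subtracted as background.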

[2] = system: S. aureus DSM 20231; assay: as above
Procedure, shortened: as §1

[3] = system: S. pneumoniae D39V; assay: as above
Procedure, shortened: as §1

[4] = system: B. subtilis 168; assay: Bliss interaction score (quartile over a dose matrix) (fitness difference); higher = more antagonism (negative = synergy)
Procedure, shortened: (§2)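 Fitness here means normalised growth, inferred for single drugs from the combination data. Growth was OD595 at entry into stationary phase, divided by the plate's robust no-drug mean and capped at 1. The Bliss score is observed minus expected fitness, with the expectation being the product, and its quartiles span technical, biological and donor/recipient replicates.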

[5] = system: S. aureus DSM 20231; assay: as above
Procedure, shortened: as §2

[6] = system: S. aureus Newman; assay: as above
Procedure, shortened: as §2

[7] = system: S. pneumoniae D39V; assay: as above
Procedure, shortened: as §2
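Wherever Bliss interaction score (quartile over a dose matrix) is given: first quartile when negative (synergy) and third quartile when positive (antagonism).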

CC(=O)NC[C@H]1CN(c2ccc(N3CCOCC3)c(F)c2)C(=O)O1 [Linezolid] + CN(N=O)C(=O)N[C@@H](C=O)[C@@H](O)[C@H](O)[C@H](O)CO [Streptozotocin]
fitness, one replicate
Settings | partner 0.15 µg/mL | partner 0.3 µg/mL | partner 0.6 µg/mL | partner 1.2 µg/mL | partner 2.4 µg/mL | partner 4.8 µg/mL
[1], first compound 0.0625 µg/mL | 0.957 | 0.927 | 0.929 | – | – | –
[1], first compound 0.5 µg/mL | 0.0222 | 0.0242 | 0.0095 | – | – | –
[2], first compound 1 µg/mL | 0.023 | 0.0376 | 0.0265 | – | – | –
[3], first compound 0.2 µg/mL | – | – | – | 0.806 | 0.823 | 0.787
[3], first compound 0.4 µg/mL | – | – | – | 0.615 | 0.69 | 0.653
[3], first compound 0.8 µg/mL | – | – | – | 0.299 | 0.351 | 0.204

fitness
Settings | partner 0.15 µg/mL | partner 0.3 µg/mL | partner 0.6 µg/mL | partner 1.2 µg/mL | partner 2.4 µg/mL | partner 4.8 µg/mL
[1], first compound 0.125 µg/mL | 0.479 | 0.502 | 0.453 | – | – | –
[1], first compound 0.25 µg/mL | 0.0775 | 0.0625 | 0.0614 | – | – | –
[2], first compound 0.125 µg/mL | 0.778 | 0.738 | 0.68 | – | – | –
[2], first compound 0.25 µg/mL | 0.519 | 0.504 | 0.496 | – | – | –
[2], first compound 0.5 µg/mL | 0.129 | 0.176 | 0.133 | – | – | –
[3], first compound 0.105 µg/mL | – | – | – | 0.771 | 0.815 | 0.778
[3], first compound 0.21 µg/mL | – | – | – | 0.69 | 0.668 | 0.704
[3], first compound 0.42 µg/mL | – | – | – | 0.438 | 0.432 | 0.408

Settings | Bliss interaction score
[4] | -0.0322
[5] | -0.0379
[6] | -0.0367
[7] | -0.115

CC(=O)NC[C@H]1CN(c2ccc(N3CCOCC3)c(F)c2)C(=O)O1 [Linezolid] + CN[C@H](CC(C)C)C(=O)N[C@H]1C(=O)N[C@@H](CC(N)=O)C(=O)N[C@H]2C(=O)N[C@H]3C(=O)N[C@H](C(=O)N[C@H](C(=O)O)c4cc(O)cc(O)c4-c4cc3ccc4O)[C@H](O)c3ccc(c(Cl)c3)Oc3cc2cc(c3O[C@@H]2O[C@H](CO)[C@@H](O)[C@H](O)[C@H]2O[C@H]2C[C@](C)(N)[C@H](O)[C@H](C)O2)Oc2ccc(cc2Cl)[C@H]1O [Vancomycin]
Settings | fitness
[2], first compound 0.125 µg/mL, partner 0.1875 µg/mL | 0.897
[2], first compound 0.125 µg/mL, partner 0.375 µg/mL | 0.936
[2], first compound 0.125 µg/mL, partner 0.75 µg/mL | 0.943
[2], first compound 0.25 µg/mL, partner 0.1875 µg/mL | 0.553
[2], first compound 0.25 µg/mL, partner 0.375 µg/mL | 0.596
[2], first compound 0.25 µg/mL, partner 0.75 µg/mL | 0.583
[2], first compound 0.5 µg/mL, partner 0.1875 µg/mL | 0.204
[2], first compound 0.5 µg/mL, partner 0.375 µg/mL | 0.18
[2], first compound 0.5 µg/mL, partner 0.75 µg/mL | 0.215
[3], first compound 0.105 µg/mL, partner 0.125 µg/mL | 0.689
[3], first compound 0.105 µg/mL, partner 0.25 µg/mL | 0.0692
[3], first compound 0.105 µg/mL, partner 0.5 µg/mL | 0.0491
[3], first compound 0.2 µg/mL, partner 0.03125 µg/mL | 0.77
[3], first compound 0.2 µg/mL, partner 0.0625 µg/mL | 0.751
[3], first compound 0.21 µg/mL, partner 0.125 µg/mL | 0.573
[3], first compound 0.21 µg/mL, partner 0.25 µg/mL | 0.082
[3], first compound 0.21 µg/mL, partner 0.5 µg/mL | 0.0299
[3], first compound 0.4 µg/mL, partner 0.03125 µg/mL | 0.63
[3], first compound 0.4 µg/mL, partner 0.0625 µg/mL | 0.604
[3], first compound 0.42 µg/mL, partner 0.125 µg/mL | 0.339
[3], first compound 0.42 µg/mL, partner 0.25 µg/mL | 0.0579
[3], first compound 0.42 µg/mL, partner 0.5 µg/mL | 0.0734
[3], first compound 0.8 µg/mL, partner 0.03125 µg/mL | 0.302
[3], first compound 0.8 µg/mL, partner 0.0625 µg/mL | 0.255
[3], first compound 0.8 µg/mL, partner 0.125 µg/mL | 0.188

[2], first compound 1 µg/mL, one replicate
Settings | fitness
partner 0.1875 µg/mL | 0.0273
partner 0.375 µg/mL | 0.0396
partner 0.75 µg/mL | 0.0452

Settings | Bliss interaction score
[4] | 0.0387
[5] | 0.0467
[6] | -0.044
[7] | -0.13

CC(=O)NC[C@H]1CN(c2ccc(N3CCOCC3)c(F)c2)C(=O)O1 [Linezolid] + Cc1cc(NS(=O)(=O)c2ccc(N)cc2)no1 [Sulfamethoxazol]
fitness, one replicate
Settings | partner 0.5 µg/mL | partner 1 µg/mL | partner 2 µg/mL | partner 4 µg/mL
[1], first compound 0.0625 µg/mL | – | 0.94 | 0.895 | 0.828
[1], first compound 0.125 µg/mL | 0.858 | – | – | –
[1], first compound 0.25 µg/mL | 0.446 | – | – | –
[1], first compound 0.5 µg/mL | 0.0399 | – | – | –
[2], first compound 1 µg/mL | – | 0.0364 | 0.0289 | 0.0207
[3], first compound 0.2 µg/mL | – | 0.777 | 0.817 | 0.726
[3], first compound 0.4 µg/mL | – | 0.368 | 0.674 | 0.661
[3], first compound 0.8 µg/mL | – | 0.348 | 0.427 | 0.397

fitness
Settings | first compound 0.105 µg/mL | first compound 0.125 µg/mL | first compound 0.21 µg/mL | first compound 0.25 µg/mL | first compound 0.42 µg/mL | first compound 0.5 µg/mL
[1], partner 1 µg/mL | – | 0.606 | – | 0.2 | – | 0.0228
[1], partner 2 µg/mL | – | 0.525 | – | 0.13 | – | 0.0265
[1], partner 4 µg/mL | – | 0.515 | – | 0.0743 | – | 0.0275
[2], partner 1 µg/mL | – | 0.844 | – | 0.55 | – | 0.167
[2], partner 2 µg/mL | – | 0.865 | – | 0.533 | – | 0.161
[2], partner 4 µg/mL | – | 0.852 | – | 0.557 | – | 0.186
[3], partner 1 µg/mL | 0.774 | – | 0.688 | – | 0.463 | –
[3], partner 2 µg/mL | 0.772 | – | 0.71 | – | 0.48 | –
[3], partner 4 µg/mL | 0.821 | – | 0.729 | – | 0.48 | –

Settings | Bliss interaction score
[4] | -0.0478
[5] | -0.03
[6] | 0.0723
[7] | -0.0972

CC(=O)NC[C@H]1CN(c2ccc(N3CCOCC3)c(F)c2)C(=O)O1 [Linezolid] + COc1c(N2C[C@@H]3CCCN[C@@H]3C2)c(F)cc2c(=O)c(C(=O)O)cn(C3CC3)c12 [Moxifloxacin]
one replicate
Settings | fitness
[1], first compound 0.0625 µg/mL, partner 0.0312 µg/mL | 0.0541
[1], first compound 0.0625 µg/mL, partner 0.0625 µg/mL | 0.0464
[1], first compound 0.0625 µg/mL, partner 0.125 µg/mL | 0.0299
[2], first compound 0.125 µg/mL, partner 0.06 µg/mL | 0.712
[2], first compound 0.125 µg/mL, partner 0.12 µg/mL | 0.535
[2], first compound 0.25 µg/mL, partner 0.06 µg/mL | 0.655
[2], first compound 0.25 µg/mL, partner 0.12 µg/mL | 0.536
[2], first compound 0.5 µg/mL, partner 0.06 µg/mL | 0.44
[2], first compound 0.5 µg/mL, partner 0.12 µg/mL | 0.368
[2], first compound 1 µg/mL, partner 0.0075 µg/mL | 0.0168
[2], first compound 1 µg/mL, partner 0.015 µg/mL | 0.0282
[2], first compound 1 µg/mL, partner 0.03 µg/mL | 0.0258

Settings | fitness
[1], first compound 0.125 µg/mL, partner 0.0312 µg/mL | 0.0559
[1], first compound 0.125 µg/mL, partner 0.0625 µg/mL | 0.0387
[1], first compound 0.125 µg/mL, partner 0.125 µg/mL | 0.0364
[1], first compound 0.125 µg/mL, partner 2 µg/mL | 0.036
[1], first compound 0.125 µg/mL, partner 4 µg/mL | 0.0272
[1], first compound 0.125 µg/mL, partner 8 µg/mL | 0.0181
[1], first compound 0.25 µg/mL, partner 0.0312 µg/mL | 0.242
[1], first compound 0.25 µg/mL, partner 0.0625 µg/mL | 0.0554
[1], first compound 0.25 µg/mL, partner 0.125 µg/mL | 0.0577
[1], first compound 0.25 µg/mL, partner 2 µg/mL | 0.0241
[1], first compound 0.25 µg/mL, partner 4 µg/mL | 0.0237
[1], first compound 0.25 µg/mL, partner 8 µg/mL | 0.0144
[1], first compound 0.5 µg/mL, partner 0.0312 µg/mL | 0.044
[1], first compound 0.5 µg/mL, partner 0.0625 µg/mL | 0.0596
[1], first compound 0.5 µg/mL, partner 0.125 µg/mL | 0.0457
[1], first compound 0.5 µg/mL, partner 2 µg/mL | 0.0308
[1], first compound 0.5 µg/mL, partner 4 µg/mL | 0.021
[1], first compound 0.5 µg/mL, partner 8 µg/mL | 0.0223
[2], first compound 0.125 µg/mL, partner 0.0075 µg/mL | 0.795
[2], first compound 0.125 µg/mL, partner 0.015 µg/mL | 0.743
[2], first compound 0.125 µg/mL, partner 0.03 µg/mL | 0.671
[2], first compound 0.25 µg/mL, partner 0.0075 µg/mL | 0.541
[2], first compound 0.25 µg/mL, partner 0.015 µg/mL | 0.5
[2], first compound 0.25 µg/mL, partner 0.03 µg/mL | 0.582
[2], first compound 0.5 µg/mL, partner 0.0075 µg/mL | 0.12
[2], first compound 0.5 µg/mL, partner 0.015 µg/mL | 0.178
[2], first compound 0.5 µg/mL, partner 0.03 µg/mL | 0.272
[3], first compound 0.105 µg/mL, partner 0.0037 µg/mL | 0.739
[3], first compound 0.105 µg/mL, partner 0.0075 µg/mL | 0.741
[3], first compound 0.105 µg/mL, partner 0.015 µg/mL | 0.73
[3], first compound 0.2 µg/mL, partner 0.005 µg/mL | 0.839
[3], first compound 0.2 µg/mL, partner 0.01 µg/mL | 0.858
[3], first compound 0.2 µg/mL, partner 0.02 µg/mL | 0.826
[3], first compound 0.21 µg/mL, partner 0.0037 µg/mL | 0.647
[3], first compound 0.21 µg/mL, partner 0.0075 µg/mL | 0.651
[3], first compound 0.21 µg/mL, partner 0.015 µg/mL | 0.624
[3], first compound 0.4 µg/mL, partner 0.005 µg/mL | 0.704
[3], first compound 0.4 µg/mL, partner 0.01 µg/mL | 0.715
[3], first compound 0.4 µg/mL, partner 0.02 µg/mL | 0.68
[3], first compound 0.42 µg/mL, partner 0.0037 µg/mL | 0.366
[3], first compound 0.42 µg/mL, partner 0.0075 µg/mL | 0.424
[3], first compound 0.42 µg/mL, partner 0.015 µg/mL | 0.449
[3], first compound 0.8 µg/mL, partner 0.005 µg/mL | 0.45
[3], first compound 0.8 µg/mL, partner 0.02 µg/mL | 0.461

Settings | Bliss interaction score
[4] | 0.0351
[5] | 0.0931
[6] | 0.074
[7] | 0.0972
